Reference: US20230257376A1, “ROCK INHIBITOR, AND PREPARATION METHOD THEREFOR AND USE THEREOF” (WUHAN LL SCIENCE AND TECHNOLOGY DEVELOPMENT CO., LTD., priority 2020, published 2023)

Columns and labels:
ROCK1 kinase = biological target: T1, ROCK1 kinase (Homo sapiens, UniProt Q13464); assay: In vitro evaluation of ROCK1 kinase selectivity (HTRF KinEASE-STK time-resolved fluorometric assay); format: biochemical; details: ROCK1 kinase 0.4 ng/μL, ATP 3.53 μM
T1 construct: purchased Invitrogen
Protocol: ROCK1 activity was detected using a 96-well (Cisbio) time-resolved fluorometric assay. The assay for ROCK1 was performed in the following assay buffer: 5 mM MgCl2 (Sigma), 1 mM DTT (Sigma) and 1× kinase buffer. The kinase buffer was used for dilution. 7.5 μL of ROCK1 kinase (Invitrogen) was added to a 96-well microplate to reach a final concentration of 0.4 ng/μL, and then 0.25 μL of test compound (DMSO content: 1%) was added. The mixture was incubated at room temperature for 0.5 h. To start the reaction, the kinase buffer was also used to mix ATP (Aladdin) and the substrate STK-substrate 2-biotin. 7.5 μL of the mixed solution was added to the microplate to reach final concentrations of 3.53 μM and 1 μM. The resulting mixture was incubated at room temperature for 2 h. 5 mL of detection buffer was mixed with STK antibody-Cryptate, and then an appropriate volume of the mixture was mixed with an equal volume of streptavidin-XL665. 10 μL of the resulting mixture was added to stop the reaction. After further incubation for about 1 h, the microplate was read on a Molecular Devices SpectraMax i3x multifunctional microplate reader. The kinase buffer, the STK-substrate 2-biotin, the detection buffer, the STK antibody-Cryptate, and the streptavidin-XL665 were all from HTRF KinEASE-STK kit (Cisbio, 1000 tests, 61GSTXLA).

ROCK2 kinase = biological target: T2, ROCK2 kinase (Homo sapiens, UniProt O75116); assay: In vitro evaluation of ROCK2 kinase activity (HTRF KinEASE-STK time-resolved fluorometric assay); format: biochemical; details: ROCK2 kinase 0.4 ng/μL, ATP 6.739 μM
T2 construct: purchased Invitrogen PV3759
T2 sequence (O75116 whole entry): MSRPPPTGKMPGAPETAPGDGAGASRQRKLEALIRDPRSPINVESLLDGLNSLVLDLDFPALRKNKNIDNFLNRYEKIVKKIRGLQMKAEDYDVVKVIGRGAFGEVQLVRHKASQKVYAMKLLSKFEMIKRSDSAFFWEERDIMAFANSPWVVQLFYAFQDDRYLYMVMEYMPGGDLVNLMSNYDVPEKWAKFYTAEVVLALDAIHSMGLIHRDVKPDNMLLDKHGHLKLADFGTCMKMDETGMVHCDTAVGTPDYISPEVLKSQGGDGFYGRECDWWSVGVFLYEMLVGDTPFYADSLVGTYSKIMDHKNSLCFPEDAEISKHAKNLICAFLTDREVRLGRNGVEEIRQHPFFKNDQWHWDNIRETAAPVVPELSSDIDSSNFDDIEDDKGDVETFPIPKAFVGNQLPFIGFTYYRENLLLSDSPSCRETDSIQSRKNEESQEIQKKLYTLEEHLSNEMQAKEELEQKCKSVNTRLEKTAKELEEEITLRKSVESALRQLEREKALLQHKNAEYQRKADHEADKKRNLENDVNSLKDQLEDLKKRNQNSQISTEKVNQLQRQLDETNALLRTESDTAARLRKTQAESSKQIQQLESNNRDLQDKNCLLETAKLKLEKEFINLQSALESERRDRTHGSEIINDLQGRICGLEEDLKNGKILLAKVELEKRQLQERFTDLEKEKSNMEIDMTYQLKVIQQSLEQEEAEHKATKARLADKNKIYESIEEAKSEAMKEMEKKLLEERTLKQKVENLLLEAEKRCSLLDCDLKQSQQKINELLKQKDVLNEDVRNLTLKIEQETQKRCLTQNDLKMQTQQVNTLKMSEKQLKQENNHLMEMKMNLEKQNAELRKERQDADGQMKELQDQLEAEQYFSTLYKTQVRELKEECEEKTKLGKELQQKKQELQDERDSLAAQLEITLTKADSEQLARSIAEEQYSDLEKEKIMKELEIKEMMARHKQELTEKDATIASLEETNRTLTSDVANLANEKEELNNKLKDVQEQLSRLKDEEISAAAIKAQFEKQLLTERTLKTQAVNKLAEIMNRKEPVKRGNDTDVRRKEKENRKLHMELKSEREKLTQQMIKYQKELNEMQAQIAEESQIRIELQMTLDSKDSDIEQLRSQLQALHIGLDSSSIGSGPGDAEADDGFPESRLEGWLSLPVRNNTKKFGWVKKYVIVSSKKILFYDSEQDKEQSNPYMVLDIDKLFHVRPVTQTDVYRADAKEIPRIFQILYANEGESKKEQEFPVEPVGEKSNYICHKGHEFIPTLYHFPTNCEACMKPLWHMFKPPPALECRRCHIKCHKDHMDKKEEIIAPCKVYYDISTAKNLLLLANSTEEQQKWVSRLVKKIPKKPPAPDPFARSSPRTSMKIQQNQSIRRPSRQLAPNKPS
Protocol: ROCK2 activity screening. ROCK2 activity was detected using a 96-well (Cisbio) time-resolved fluorometric assay. The assay for ROCK2 was performed in the following assay buffer: 5 mM MgCl2 (Sigma), 1 mM DTT (Sigma) and 1× kinase buffer. The kinase buffer was used for dilution. 7.5 μL of ROCK2 kinase (Invitrogen, PV3759) was added to a 96-well microplate to reach a final concentration of 0.4 ng/μL, and then 0.25 μL of test compound (DMSO content: 1% (volume fraction)) was added. The mixture was incubated at room temperature for 0.5 h. To start the reaction, the kinase buffer was used to mix ATP (Aladdin) and the substrate STK-substrate 2-biotin. 7.5 μL of the mixed solution was added to the microplate to reach final concentrations of 6.739 μM and 1 μM. The resulting mixture was incubated at room temperature for 2 h. 5 mL of detection buffer was mixed with STK antibody-Cryptate, and then an appropriate volume of the mixture was mixed with an equal volume of streptavidin-XL665. 10 μL of the resulting mixture was added to the microplate to stop the reaction. After further incubation for about 1 h, the microplate was read on a Molecular Devices SpectraMax i3x multifunctional microplate reader. The kinase buffer, the STK-substrate 2-biotin, the detection buffer, the STK antibody-Cryptate, and the streptavidin-XL665 were all from HTRF KinEASE-STK kit (Cisbio, 1000 tests, 61GSTXLA).

T1 sequence (Q13464 whole entry): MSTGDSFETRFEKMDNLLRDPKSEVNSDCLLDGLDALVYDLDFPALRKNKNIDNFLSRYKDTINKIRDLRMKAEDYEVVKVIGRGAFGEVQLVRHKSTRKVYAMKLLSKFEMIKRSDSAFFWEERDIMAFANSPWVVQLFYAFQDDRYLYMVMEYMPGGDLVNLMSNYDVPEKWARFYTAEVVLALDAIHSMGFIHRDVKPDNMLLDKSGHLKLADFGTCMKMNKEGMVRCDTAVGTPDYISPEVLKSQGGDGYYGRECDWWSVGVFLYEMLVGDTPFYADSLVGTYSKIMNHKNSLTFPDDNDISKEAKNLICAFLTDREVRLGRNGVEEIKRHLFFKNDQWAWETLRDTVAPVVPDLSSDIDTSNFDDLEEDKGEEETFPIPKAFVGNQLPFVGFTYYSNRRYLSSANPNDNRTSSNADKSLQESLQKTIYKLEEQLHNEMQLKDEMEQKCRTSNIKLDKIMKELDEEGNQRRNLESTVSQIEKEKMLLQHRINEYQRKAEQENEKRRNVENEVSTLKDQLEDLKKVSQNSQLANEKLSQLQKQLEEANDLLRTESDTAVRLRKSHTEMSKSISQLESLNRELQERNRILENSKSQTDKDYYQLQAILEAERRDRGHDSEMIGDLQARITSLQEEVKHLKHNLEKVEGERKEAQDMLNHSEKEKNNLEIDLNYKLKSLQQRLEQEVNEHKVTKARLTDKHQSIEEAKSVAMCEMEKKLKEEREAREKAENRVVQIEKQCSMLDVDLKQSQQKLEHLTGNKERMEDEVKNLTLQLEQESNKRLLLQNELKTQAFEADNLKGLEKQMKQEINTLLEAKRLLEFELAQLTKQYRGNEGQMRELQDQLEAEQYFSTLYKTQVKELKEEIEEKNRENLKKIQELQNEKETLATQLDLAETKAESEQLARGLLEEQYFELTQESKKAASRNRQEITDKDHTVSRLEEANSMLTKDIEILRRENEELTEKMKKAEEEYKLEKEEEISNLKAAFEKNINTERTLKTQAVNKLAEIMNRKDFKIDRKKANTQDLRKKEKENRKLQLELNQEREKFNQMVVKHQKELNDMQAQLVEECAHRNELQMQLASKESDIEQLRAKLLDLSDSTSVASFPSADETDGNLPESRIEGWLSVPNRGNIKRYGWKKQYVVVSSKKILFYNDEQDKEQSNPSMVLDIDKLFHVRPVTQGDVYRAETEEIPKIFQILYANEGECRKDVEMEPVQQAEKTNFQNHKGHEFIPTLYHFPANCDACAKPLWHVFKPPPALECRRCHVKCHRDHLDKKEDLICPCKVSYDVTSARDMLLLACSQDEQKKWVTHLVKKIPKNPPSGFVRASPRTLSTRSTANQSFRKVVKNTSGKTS

Compound	IC50 (ROCK1 kinase) [nM]	IC50 (ROCK2 kinase) [nM]
Cn1c(C(=O)N2CC(F)(F)C2)cc2c1CN(c1ncc(C(F)(F)F)c(Nc3ccc(-c4cn[nH]c4)cc3)n1)CC2 [Compound L035, (6-(4-((4-(1H-pyrazol-4-yl)phenyl)amino)-5-(trifluoromethyl)pyrimidin-2-yl)-1-methyl-4,5,6,7-tetrahydro-1H-pyrrolo[2,3-c]pyridin-2-yl)(3,3-difluoroazetidin-1-yl)methanone]	> 4500	50 to 500
Cn1c(C(=O)N2CC(F)(F)C2)cc2c1CN(c1ncc(Cl)c(Nc3ccc(-c4c[nH]nc4F)cc3)n1)CC2 [Compound L038, (6-(5-chloro-4-((4-(3-fluoro-1H-pyrazol-4-yl)phenyl)amino)pyrimidin-2-yl)-1-methyl-4,5,6,7-tetrahydro-1H-pyrrolo[2,3-c]pyridin-2-yl)(3,3-difluoroazetidin-1-yl)methanone]	> 4500	50 to 500
Cn1c(C(=O)N2CC(C(F)F)C2)cc2c1CN(c1ncc(F)c(Nc3ccc(-c4c[nH]nc4F)cc3)n1)CC2 [Compound L039, (3-(difluoromethyl)azetidin-1-yl)(6-(5-fluoro-4-((4-(3-fluoro-1H-pyrazol-4-yl)phenyl)amino)pyrimidin-2-yl)-1-methyl-4,5,6,7-tetrahydro-1H-pyrrolo[2,3-c]pyridin-2-yl)methanone]	> 4500	50 to 500
Cn1c(C(=O)N2CC(F)(F)C2)cc2c1CN(c1nc(Nc3ccc(-c4cn[nH]c4)cc3)cc(C(F)(F)F)n1)CC2 [Compound L041, (6-(4-((4-(1H-pyrazol-4-yl)phenyl)amino)-6-(trifluoromethyl)pyrimidin-2-yl)-1-methyl-4,5,6,7-tetrahydro-1H-pyrrolo[2,3-c]pyridin-2-yl)(3,3-difluoroazetidin-1-yl)methanone]	> 4500	50 to 500
Cn1c(C(=O)N2CC(F)(F)C2)cc2c1CN(c1nnc(Nc3ccc(-c4cn[nH]c4)cc3)o1)CC2 [Compound L046, (6-(5-((4-(1H-pyrazol-4-yl)phenyl)amino)-1,3,4-oxadiazol-2-yl)-1-methyl-4,5,6,7-tetrahydro-1H-pyrrolo[2,3-c]pyridin-2-yl)(3,3-difluoroazetidin-1-yl)methanone]	> 4500	> 4500
CC(C)c1nc(Nc2ccc(-c3cn[nH]c3)cc2)nc(N2CCc3cc(C(=O)N4CC(F)(F)C4)n(C)c3C2)n1 [Compound L049]	> 4500	50 to 500

Continued, values first:

IC50 (ROCK1 kinase) [nM]	IC50 (ROCK2 kinase) [nM]	Compound
> 4500	50 to 500	Cn1c(C(=O)N2CC(F)(F)C2)cc2c1CN(c1nc(Nc3ccc(-c4cn[nH]c4)cc3)nc(C3COC3)n1)CC2 [Compound L052, (6-(4-((4-(1H-pyrazol-4-yl)phenyl)amino)-6-(oxetan-3-yl)-1,3,5-triazin-2-yl)-1-methyl-4,5,6,7-tetrahydro-1H-pyrrolo[2,3-c]pyridin-2-yl)(3,3-difluoroazetidin-1-yl)methanone]
> 4500	50 to 500	Cn1c(C(=O)N2CC(F)(F)C2)cc2c1CN(c1nc3c(c(Nc4ccc(-c5cn[nH]c5)cc4)n1)CCC3)CC2 [Compound L053, (6-(4-((4-(1H-pyrazol-4-yl)phenyl)amino)-6,7-dihydro-5H-cyclopenta[d]pyrimidin-2-yl)-1-methyl-4,5,6,7-tetrahydro-1H-pyrrolo[2,3-c]pyridin-2-yl)(3,3-difluoroazetidin-1-yl)methanone]
> 4500	500 to 4500	O=C(c1ccc2c(cnn2-c2nccc(Nc3ccc(-c4cn[nH]c4)cc3)n2)c1)N1CC(F)(F)C1 [Compound L055]
